In ChEMBL document CHEMBL1133047, “Synthesis of neurotensin(9-13) analogues exhibiting enhanced human neurotensin receptor binding affinities” (Bioorg Med Chem Lett, 2000):
pIC50: −log10 of the molar value. Where a SMILES comes first, the peptide text is derived from it. The star is where a group is joined. X1 = [N-]=[N+]=N[C@@H](CCCNCCN1CCNCC1)C(=O)*; X5 = [N-]=[N+]=N[C@@H](CCCNCCNCCN)C(=O)*; X2 = [N-]=[N+]=N[C@@H](CCCNCCCCN)C(=O)*; X4 = [N-]=[N+]=N[C@@H](CCCNCCCN)C(=O)*; X3 = [N-]=[N+]=N[C@@H](CCCNCCN)C(=O)*

The compounds below were run against Neurotensin receptor type 1 (Homo sapiens, UniProt P30989) (assay: Compound was evaluated for the binding affinity against human neurotensin receptor (hNTR)-1 expressed in CHO cells).
Chain of Neurotensin receptor type 1 (P30989 whole entry): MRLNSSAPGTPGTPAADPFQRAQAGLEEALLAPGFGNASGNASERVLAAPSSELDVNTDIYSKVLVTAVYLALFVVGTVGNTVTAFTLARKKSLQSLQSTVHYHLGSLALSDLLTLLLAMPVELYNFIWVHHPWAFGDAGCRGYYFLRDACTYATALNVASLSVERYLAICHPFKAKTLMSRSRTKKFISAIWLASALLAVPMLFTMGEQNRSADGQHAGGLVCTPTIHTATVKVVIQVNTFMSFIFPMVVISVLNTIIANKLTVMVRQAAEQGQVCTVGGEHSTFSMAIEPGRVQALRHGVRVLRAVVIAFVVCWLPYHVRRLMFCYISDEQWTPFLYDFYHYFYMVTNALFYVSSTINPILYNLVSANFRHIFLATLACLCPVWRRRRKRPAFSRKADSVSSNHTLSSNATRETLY
Type: cell-based

Structure (SMILES)	pIC50
CC[C@H](C)[C@H](NC(=O)[C@H](Cc1ccc(O)cc1)NC(=O)[C@@H]1CCCN1C(=O)[C@@H](N)CCCNC(=N)N)C(=O)N[C@@H](CC(C)C)C(=O)O	7.72
CC[C@H](C)[C@H](NC(=O)[C@H](Cc1ccc(O)cc1)NC(=O)[C@@H]1CCCN1C(=O)[C@H](CCCNCCN1CCNCC1)N=[N+]=[N-])C(=O)N[C@@H](CC(C)C)C(=O)O (X1-PYIL-OH)	7.55
CC[C@H](C)[C@H](NC(=O)[C@H](Cc1ccc(O)cc1)NC(=O)[C@@H]1CCCN1C(=O)[C@H](CCCNCCCCN)N=[N+]=[N-])C(=O)N[C@@H](CC(C)C)C(=O)O (X2-PYIL-OH)	8.03
CC[C@H](C)[C@H](NC(=O)[C@H](Cc1ccc(O)cc1)NC(=O)[C@@H]1CCCN1C(=O)[C@H](CCCNCCN)N=[N+]=[N-])C(=O)N[C@@H](CC(C)C)C(=O)O (X3-PYIL-OH)	7.83

Now those with a higher pIC50, led by results:

pIC50	Structure (SMILES)
8.06	CC[C@H](C)[C@H](NC(=O)[C@H](Cc1ccc(O)cc1)NC(=O)[C@@H]1CCCN1C(=O)[C@H](CCCNCCNCCN)N=[N+]=[N-])C(=O)N[C@@H](CC(C)C)C(=O)O (X5-PYIL-OH)
8.41	CC[C@H](C)[C@H](NC(=O)[C@H](Cc1ccc(O)cc1)NC(=O)[C@@H]1CCCN1C(=O)[C@H](CCCNCCCN)N=[N+]=[N-])C(=O)N[C@@H](CC(C)C)C(=O)O (X4-PYIL-OH)
8.89	CC[C@H](C)[C@H](NC(=O)[C@H](Cc1ccc(O)cc1)NC(=O)[C@@H]1CCCN1C(=O)[C@H](CCCN)NC(=O)[C@@H](N)CCCN)C(=O)N[C@@H](CC(C)C)C(=O)O
